Among the data in patent publication US20230416256A1, “SMALL MOLECULE INHIBITORS OF NF-kB INDUCING KINASE” (Janssen Pharmaceutica NV, priority 2020, published 2023) are IC50 values, retold here.

The target of experiment [1] is recombinant human NF-kappaB-inducing kinase (NIK/MAP3K14) (Homo sapiens, UniProt Q99558). Nature of the experiment: Inhibition of auto-phosphorylation of recombinant human NIK/MAP3K14 activity (AlphaScreen). Type of experiment: biochemical. Particulars: GST-tagged NIK/MAP3K14 1 nM, 5 μM ATP, 2 h at 25° C.; average of values obtained. Put shortly:
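GST-tagged NIK (1 nM) auto-phosphorylated for 2 h at 25 °C with 5 μM ATP in 50 mM Tris pH 7.5, 5 mM MgCl2, 0.7% DMSO. Phospho-Ser176/180 was detected by AlphaScreen using an anti-phospho-IKK antibody. IC50 came from sigmoidal fits of % inhibition versus high (full activity) and low (no ATP) controls.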

Experiment [2] concerns p-IKKα levels in L363 (NIK translocated multiple myeloma) cells. In words: Effect of compounds on p-IKKα levels in L363 cells (AlphaLISA SureFire Ultra). Type of experiment: cell-based, human. Particulars: Homo sapiens, 10 μM MG132, 6 h, average of values obtained, read-out: Assay 2 IC50. In outline:
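L363 cells were BAFF-stimulated overnight (250 ng/ml) in DMEM/0.5% BSA, then exposed to an 11-point 1:3 compound series (0.3% DMSO) with BAFF and 10 μM MG132 for 6 h at 37 °C. p-IKKα (Ser176/180) was measured by AlphaLISA SureFire Ultra. IC50 was fitted from % inhibition normalized to stimulated and unstimulated controls.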
In general terms: Bead proximity is the source of the signal in Alpha formats.

[3] abbreviates: L-363, 6 h, 250 ng/ml BAFF stimulated.
The mark [4] stands for this setting: L-363, 250 ng/ml BAFF stimulated.

Where two headings read alike, the source gives them in different places. Bounds are passed on as bounds.

Chain of recombinant human NF-kappaB-inducing kinase (NIK/MAP3K14) (Q99558 whole entry): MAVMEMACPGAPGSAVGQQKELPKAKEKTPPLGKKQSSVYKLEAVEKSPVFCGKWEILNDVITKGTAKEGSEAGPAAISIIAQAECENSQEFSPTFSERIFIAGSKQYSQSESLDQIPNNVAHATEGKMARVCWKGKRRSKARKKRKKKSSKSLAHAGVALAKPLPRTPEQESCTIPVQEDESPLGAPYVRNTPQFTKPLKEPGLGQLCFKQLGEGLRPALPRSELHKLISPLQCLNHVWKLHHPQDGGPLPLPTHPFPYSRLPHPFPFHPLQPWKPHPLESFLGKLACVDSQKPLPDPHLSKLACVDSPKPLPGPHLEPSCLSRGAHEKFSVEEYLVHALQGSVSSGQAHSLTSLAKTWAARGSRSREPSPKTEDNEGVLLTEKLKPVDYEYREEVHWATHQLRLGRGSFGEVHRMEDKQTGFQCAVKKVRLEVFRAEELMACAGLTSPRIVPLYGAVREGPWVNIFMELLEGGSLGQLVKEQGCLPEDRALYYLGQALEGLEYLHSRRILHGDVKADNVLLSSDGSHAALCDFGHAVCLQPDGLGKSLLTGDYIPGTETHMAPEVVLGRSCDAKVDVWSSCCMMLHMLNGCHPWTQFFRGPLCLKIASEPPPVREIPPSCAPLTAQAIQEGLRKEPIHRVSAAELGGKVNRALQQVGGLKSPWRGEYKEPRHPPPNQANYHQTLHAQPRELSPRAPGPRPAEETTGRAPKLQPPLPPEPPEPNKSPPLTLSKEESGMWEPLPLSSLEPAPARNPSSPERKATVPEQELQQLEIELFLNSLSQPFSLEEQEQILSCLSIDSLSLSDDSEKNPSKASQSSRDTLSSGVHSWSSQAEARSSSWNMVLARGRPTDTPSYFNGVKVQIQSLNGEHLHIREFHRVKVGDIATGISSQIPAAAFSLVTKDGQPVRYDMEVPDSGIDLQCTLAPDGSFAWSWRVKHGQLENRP

Turning to `O[C@@]1(c2cccc(-c3csc(-c4c[nH]c5ncccc45)n3)c2)CCCn2ccnc21` (single isomer, unassigned) [Example 38], the IC50 in experiment [1] and in experiment [2] (setting [3]) was no more than 100 nM in each case.

Take `Cc1[nH]c2ncccc2c1-c1nc(-c2cccc([C@]3(O)CCN(C)C3=O)c2)cs1` [Example 71, (R)-3-Hydroxy-1-methyl-3-(3-(2-(2-methyl-1H-pyrrolo[2,3-b]pyridin-3-yl)thiazol-4-yl)phenyl)pyrrolidin-2-one]: the IC50 is 100 to 500 nM in experiment [1] and greater than 500 nM in experiment [2] (setting [4]).

As to `C[C@](O)(c1cccc(-c2csc(-c3c[nH]c4nccnc34)n2)c1)c1ncc[nH]1` (single isomer, unassigned) [Example 78], the IC50 in experiment [1] and in experiment [2] (setting [3]) was greater than 500 nM in each case.

In the case of `CN1CC[C@@](O)(c2cccc(-c3nc(-c4ccc5cnn(C)c5c4)cs3)c2)C1=O` [Example 128, (R)-3-Hydroxy-1-methyl-3-(3-(4-(1-methyl-1H-indazol-6-yl)thiazol-2-yl)phenyl)pyrrolidin-2-one], the IC50 in experiment [1] and in experiment [2] (setting [4]) was greater than 500 nM throughout.

`CN1CC[C@@](O)(c2cccc(-c3csc(-c4c[nH]c5ncncc45)n3)c2)C1=O` [Example 53, (R)-3-(3-(2-(7H-Pyrrolo[2,3-d]pyrimidin-5-yl)thiazol-4-yl)phenyl)-3-hydroxy-1-methylpyrrolidin-2-one]: the IC50 in experiment [1] was no more than 100 nM; in experiment [2] (setting [4]) it was greater than 500 nM.

As for `O[C@]1(c2cccc(-c3csc(-c4c[nH]c5ncccc45)n3)c2)CCCn2ccnc21` (single isomer, unassigned) [Example 37], the IC50 in experiment [1] and in experiment [2] (setting [3]) was greater than 500 nM each time.

As to `Cc1cnc2[nH]cc(-c3nc(-c4cccc([C@]5(O)CCn6ccnc65)c4)cs3)c2n1` [Example 81, (R)-7-(3-(2-(2-Methyl-5H-pyrrolo[2,3-b]pyrazin-7-yl)thiazol-4-yl)phenyl)-6,7-dihydro-5H-pyrrolo[1,2-a]imidazol-7-ol], the IC50 in experiment [1] and in experiment [2] (setting [3]) was no more than 100 nM in each case.

As to `O[C@@]1(c2cccc(-c3nc(-c4c[nH]c5ncccc45)cs3)c2)CCc2scnc21` [Example 59, (R)-4-(3-(4-(1H-Pyrrolo[2,3-b]pyridin-3-yl)thiazol-2-yl)phenyl)-5,6-dihydro-4H-cyclopenta[d]thiazol-4-ol], the IC50 in experiment [1] and in experiment [2] (setting [3]) was no more than 100 nM throughout.

Consider `Cc1ccc(-c2csc(-c3c[nH]c4nccnc34)n2)cc1[C@@]1(O)CCN(C)C1=O` [Example 70, (S)-3-(5-(2-(5H-Pyrrolo[2,3-b]pyrazin-7-yl)thiazol-4-yl)-2-methylphenyl)-3-hydroxy-1-methylpyrrolidin-2-one], for which the concentration for half-maximal inhibition (IC50) in experiment [1] and in experiment [2] (setting [4]) was greater than 500 nM in each case.

`O[C@@]1(c2cccc(-c3csc(-c4c[nH]c5ncccc45)n3)c2)CCc2scnc21` (single isomer, unassigned) [Example 32]: the IC50 in experiment [1] and in experiment [2] (setting [3]) was no more than 100 nM in each case.

As to `O[C@@]1(c2cccc(-c3csc(-c4n[nH]c5ncccc45)n3)c2)CCn2ccnc21` [Example 75, (R)-7-(3-(2-(1H-Pyrazolo[3,4-b]pyridin-3-yl)thiazol-4-yl)phenyl)-6,7-dihydro-5H-pyrrolo[1,2-a]imidazol-7-ol], the IC50 was 100 to 500 nM in experiment [1] and greater than 500 nM in experiment [2] (setting [3]).

`O[C@@]1(c2cccc(-c3csc(-c4c[nH]c5ncc(C(F)(F)F)cc45)n3)c2)CCn2ccnc21` [Example 25, (R)-7-(3-(2-(5-(Trifluoromethyl)-1H-pyrrolo[2,3-b]pyridin-3-yl)thiazol-4-yl)phenyl)-6,7-dihydro-5H-pyrrolo[1,2-a]imidazol-7-ol]: the IC50 in experiment [1] was no more than 100 nM; in experiment [2] (setting [3]), 100 to 500 nM.

In the case of `CN1CC[C@@](O)(c2cccc(-c3nc(-c4c[nH]c5ncccc45)sc3C#N)c2)C1=O` [Example 98, (R)-4-(3-(3-Hydroxy-1-methyl-2-oxopyrrolidin-3-yl)phenyl)-2-(1H-pyrrolo[2,3-b]pyridin-3-yl)thiazole-5-carbonitrile], the IC50 in experiment [1] and in experiment [2] (setting [4]) was greater than 500 nM each time.

Turning to `CN1CC[C@@](O)(c2cccc(-c3nc(-c4c[nH]c5ncccc45)cs3)c2)C1=O` [Example 8, (R)-3-(3-(4-(1H-Pyrrolo[2,3-b]pyridin-3-yl)thiazol-2-yl)phenyl)-3-hydroxy-1-methylpyrrolidin-2-one], the IC50 in experiment [1] is no more than 100 nM; in experiment [2] (setting [4]) it was greater than 500 nM.

As usually defined, the IC50 is the concentration at which inhibition is half-maximal.
